From ChEMBL document CHEMBL5550186, “Exploring the Potential of Cyclic Peptidyl Antitumor Agents Derived from Natural Macrocyclic Peptide Phakellistatin 13” (J Med Chem, 2024)
Active and inactive are the calls of the source. The calls are words filed in the database; no cut-off is given here.

Legend:
HepG2 [1] = assay: Induction of cell cycle arrest in human HepG2 cells assessed as accumulation of cells at S phase at 10 uM incubated for 24 hrs by PI staining based flow cytometry analysis (reference value: 39.6%); assay type: functional
[2] = Upregulation of SESN3 expression level in human HepG2 cells assessed as fold change by KEGG enrichment analysis; assay type: functional
HepG2 [3] = assay: Induction of cell cycle arrest in human HepG2 cells assessed as assessed as accumulation of cells at G2/M phase at 10 uM incubated for 12 hrs by PI staining based flow cytometry analysis (reference value: 6.38%); assay type: functional
HepG2 [4] = assay: Induction of cell cycle arrest in human HepG2 cells assessed as accumulation of cells at G2/M phase at 5 uM incubated for 48 hrs by PI staining based flow cytometry analysis (reference value: 6.38%); assay type: functional
HepG2 [5] = assay: Induction of cell cycle arrest in human HepG2 cells assessed as accumulation of cells at S phase at 10 uM incubated for 48 hrs by PI staining based flow cytometry analysis (reference value: 39.6%); assay type: functional
HepG2 [6] = assay: Induction of apoptosis in human HepG2 cells assessed as late apoptotic cells at 10 uM incubated for 48 hrs by annexin V-FITC/PI staining based flow cytometry analysis (reference value: 0.16%); assay type: functional
HepG2 [7] = assay: Upregulation of p53 level in human HepG2 cells at 5 to 20 uM measured after 48 hrs by Western blot analysis; assay type: functional, cell-based; conditions: dose 5-20 µM
4T1 = assay: Antiproliferative activity against mouse 4T1 cells incubated for 48 hrs by MTT assay; assay type: functional, cell-based; conditions: 4T1, 48 h
Cell membrane [8] = assay: Induction of mitochondrial membrane potential loss in human HepG2 cells assessed as decrease in fluorescence at 5 uM measured after 48 hrs by Rhodamine 123 staining based flow cytometry (reference value: 66.8%); assay type: cell membranes; set-up: scale not given: the % may be the effect or the level left
HepG2 [9] = assay: Induction of apoptosis in human HepG2 cells assessed as late apoptotic cells at 5 uM incubated for 48 hrs by annexin V-FITC/PI staining based flow cytometry analysis (reference value: 0.16%); assay type: functional
[10] = Toxicity in Balb/c mouse assessed as effect on heart at 6 mg/kg, iv measured after 14 days by H and E staining based analysis; assay type: organism-based; conditions: in vivo, 336 h, time 14 day
[11] = Toxicity in Balb/c mouse assessed as effect on liver at 6 mg/kg, iv measured after 14 days by H and E staining based analysis; assay type: organism-based; conditions: in vivo, 336 h, time 14 day
HepG2 [12] = assay: Induction of apoptosis in human HepG2 cells assessed as early apoptotic cells at 20 uM incubated for 48 hrs by annexin V-FITC/PI staining based flow cytometry analysis (reference value: 0.50%); assay type: functional
HepG2 [13] = assay: Induction of cell cycle arrest in human HepG2 cells assessed as accumulation of cells at G2/M phase at 10 uM incubated for 48 hrs by PI staining based flow cytometry analysis (reference value: 6.38%); assay type: functional
Cell membrane [14] = assay: Induction of mitochondrial membrane potential loss in human HepG2 cells assessed as decrease in fluorescence at 10 uM measured after 48 hrs by Rhodamine 123 staining based flow cytometry (reference value: 66.8%); assay type: cell membranes; set-up: scale not given: the % may be the effect or the level left
HepG2 [15] = assay: Induction of apoptosis in human HepG2 cells assessed as viable cells at 5 uM incubated for 48 hrs by annexin V-FITC/PI staining based flow cytometry analysis (reference value: 99.3%); assay type: functional; conditions: read-out: Activity
HepG2 [16] = assay: Induction of apoptosis in human HepG2 cells assessed as late apoptotic cells at 20 uM incubated for 48 hrs by annexin V-FITC/PI staining based flow cytometry analysis (reference value: 0.16%); assay type: functional
HepG2 [17] = assay: Induction of apoptosis in human HepG2 cells assessed as increase in caspase 3 activity at 5 to 10 uM measured after 24 hrs by green-nuc staining based fluorescence microscopic analysis; assay type: functional, cell-based; conditions: dose 5-10 µM
[18] = […] of CCND1 expression level in human HepG2 cells assessed as fold change by KEGG enrichment analysis; assay type: functional
HepG2 [19] = assay: Induction of cell cycle arrest in human HepG2 cells assessed as accumulation of cells at >G2/M phase at 20 uM incubated for 48 hrs by PI staining based flow cytometry analysis (reference value: 28.0%); assay type: functional
[20] = Toxicity in Balb/c mouse assessed as effect on kidney at 6 mg/kg, iv measured after 14 days by H and E staining based analysis; assay type: organism-based; conditions: in vivo, 336 h, time 14 day
[21] = Downregulation of DKK1 expression level in human HepG2 cells assessed as fold change by KEGG enrichment analysis; assay type: functional
[22] = Upregulation of CXCL2 expression level in human HepG2 cells assessed as fold change by KEGG enrichment analysis; assay type: functional
HepG2 [23] = assay: Induction of cell cycle arrest in human HepG2 cells assessed as assessed as accumulation of cells at S phase at 10 uM incubated for 12 hrs by PI staining based flow cytometry analysis (reference value: 39.6%); assay type: functional
HepG2 [24] = assay: Induction of apoptosis in human HepG2 cells assessed as viable cells at 20 uM incubated for 48 hrs by annexin V-FITC/PI staining based flow cytometry analysis (reference value: 99.3%); assay type: functional; conditions: read-out: Activity
HepG2 [25] = assay: Induction of morphological changes in human HepG2 cells assessed as decrease in cell adhesion at 40 uM measured after 12 to 24 hrs by fluorescence inverted microscopic analysis; assay type: functional, cell-based; conditions: time 12-24 hrs
[26] = Antiproliferative activity against mouse L929 cells incubated for 48 hrs by MTT assay; assay type: toxicity, cell-based
[27] = Upregulation of […] expression level in human HepG2 cells assessed as fold change by KEGG enrichment analysis; assay type: functional
HepG2 [28] = assay: Induction of cell cycle arrest in human HepG2 cells assessed as accumulation of cells at 2N phase at 10 uM incubated for 24 hrs by PI staining based flow cytometry analysis (reference value: 26.0%); assay type: functional
[29] = Upregulation of ATF4 expression level in human HepG2 cells assessed as fold change by KEGG enrichment analysis; assay type: functional
HepG2 [30] = assay: Induction of cell cycle arrest in human HepG2 cells assessed as accumulation of cells at >G2/M phase at 10 uM incubated for 48 hrs by PI staining based flow cytometry analysis (reference value: 28.0%); assay type: functional
[31] = Upregulation of FGF21 expression level in human HepG2 cells assessed as fold change by KEGG enrichment analysis; assay type: functional
HepG2 [32] = assay: Induction of cell cycle arrest in human HepG2 cells assessed as accumulation of cells at 2N phase at 10 uM incubated for 48 hrs by PI staining based flow cytometry analysis (reference value: 26.0%); assay type: functional
in vitro = conditions: human, Caco-2
Description: Apparent permeability of compound in human Caco-2 cells at 10 uM measured upto 120 mins by LC-MS/MS analysis

HepG2 [33] = assay: Induction of apoptosis in human HepG2 cells assessed as necrotic cells at 5 uM incubated for 48 hrs by annexin V-FITC/PI staining based flow cytometry analysis (reference value: 0%); assay type: functional
HepG2 [34] = assay: Induction of cell cycle arrest in human HepG2 cells assessed as accumulation of cells at <2N phase at 10 uM incubated for 24 hrs by PI staining based flow cytometry analysis (reference value: 0.027%); assay type: functional
HepG2 [35] = assay: Induction of cell cycle arrest in human HepG2 cells assessed as accumulation of cells at S phase at 5 uM incubated for 48 hrs by PI staining based flow cytometry analysis (reference value: 39.6%); assay type: functional

CC(C)C[C@H]1NC(=O)[C@H]([C@@H](C)OCc2ccccc2)NC(=O)[C@H]2CCCN2C(=O)CN2C(=O)c3ccccc3[C@@]2(O)CN(Cc2ccccc2)C(=O)[C@H](Cc2ccccc2)NC(=O)[C@H]2CCCN2C(=O)[C@H](Cc2c[nH]c3ccccc23)NC1=O
Activity (HepG2 [1]): 14.3% | fold change (FC) [2]: 1.529 | Activity (HepG2 [3]): 12.4% | Activity (HepG2 [4]): 18.9% | Activity (HepG2 [5]): 23.3% | Activity (HepG2 [6]): 4.57% | Activity (HepG2 [7]): Active | IC50 (4T1): 38.5 µM | Activity (Cell membrane [8]): 41.6% | Activity (HepG2 [9]): 2.4% | Activity [10]: Non-Toxic | Activity [11]: Non-Toxic | Activity (HepG2 [12]): 41.1% | Activity (HepG2 [13]): 23% | Activity (Cell membrane [14]): 28.8% | viability at 5 µM (HepG2 [15]): 80.8% | Activity (HepG2 [16]): 6.88% | Activity (HepG2 [17]): Active | fold change (FC) [18]: -1.18 | Activity (HepG2 [19]): 1.12% | Activity [20]: Non-Toxic | fold change (FC) [21]: -3.288 | fold change (FC) [22]: 1.751 | Activity (HepG2 [23]): 18.9% | viability at 20 µM (HepG2 [24]): 52% | Activity (HepG2 [25]): Active | IC50 at 48 h [26]: > 100 µM | fold change (FC) [27]: 1.218 | Activity (HepG2 [28]): 23.3% | fold change (FC) [29]: 1.43 | Activity (HepG2 [30]): 0% | fold change (FC) [31]: 9.022 | Activity (HepG2 [32]): 33.5% | Papp at 2 h, 10 µM (in vitro): > 200 nm/s | Activity (HepG2 [33]): 0% | Activity (HepG2 [34]): 35.9% | Activity (HepG2 [35]): 12.3%
